These results are taken from patent US8008299B2, “Urotensin II receptor antagonists” (Janssen Pharmaceutica, N.V., priority 2007, dated 2011).

Assay [1] has as its target T1, rat GPR14 (U-II receptor) (Rattus norvegicus, UniProt P49684).
T1 construct: expressed in transfected cells
T1 sequence (P49684 1-386): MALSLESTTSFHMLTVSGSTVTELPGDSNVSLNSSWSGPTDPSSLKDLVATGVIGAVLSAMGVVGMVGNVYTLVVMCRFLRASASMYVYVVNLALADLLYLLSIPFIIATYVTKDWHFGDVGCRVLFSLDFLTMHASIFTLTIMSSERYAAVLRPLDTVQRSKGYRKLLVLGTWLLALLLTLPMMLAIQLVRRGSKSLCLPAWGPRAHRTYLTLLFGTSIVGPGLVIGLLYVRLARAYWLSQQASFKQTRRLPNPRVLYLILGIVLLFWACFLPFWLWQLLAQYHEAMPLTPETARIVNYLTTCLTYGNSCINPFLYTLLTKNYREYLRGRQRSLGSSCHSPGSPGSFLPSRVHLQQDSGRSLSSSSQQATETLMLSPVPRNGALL
The assay can be described thus: Rat UII Calcium Mobilization FLIPR Assay. It counts as cell-based. Conditions: CHO cells transfected with rat GPR14; antagonist activity after 5 min incubation vs agonist (Ac)-CFWK(2-NaI)C-NH2 at 1 nM. The gist of the method: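 CHO cells stably expressing rat U-II receptor, seeded 24 h before assay, were loaded with FLIPR calcium dye in HBSS/20 mM HEPES/0.1% BSA/2.5 mM probenecid, pH 7.4, for 1 h at 37° C. Calcium mobilization then read by FLIPR at 23° C.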
(In general: Calcium assays in cells follow changes in intracellular calcium, usually with a dye or a luminescent sensor.)

Assay [2] addresses T2, Human UII (U-II receptor) in 6D9 human rhabdomyosarcoma cells (Homo sapiens, UniProt Q9UKP6).
T2 construct: 6D9: isolated by dilution subcloning of RMS13 cells, ATCC® Number: CRL-2061; host or cells: 6D9 human rhabdomyosarcoma cells (subclone of RMS13)
T2 sequence (Q9UKP6 1-389): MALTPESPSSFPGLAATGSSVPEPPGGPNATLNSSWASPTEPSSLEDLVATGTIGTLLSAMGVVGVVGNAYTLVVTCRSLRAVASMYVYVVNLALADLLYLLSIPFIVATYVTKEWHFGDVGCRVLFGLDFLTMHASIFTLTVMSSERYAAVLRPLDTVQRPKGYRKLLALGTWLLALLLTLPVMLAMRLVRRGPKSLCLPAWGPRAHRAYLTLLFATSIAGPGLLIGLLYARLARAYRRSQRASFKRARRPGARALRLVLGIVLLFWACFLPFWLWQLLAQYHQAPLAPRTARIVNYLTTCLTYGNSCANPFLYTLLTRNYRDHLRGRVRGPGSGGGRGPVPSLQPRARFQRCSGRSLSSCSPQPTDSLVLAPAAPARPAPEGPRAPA
Kind of assay: Human UII Calcium Mobilization Assay. The class given is cell-based. To be noted: 6D9 human rhabdomyosarcoma cells, FLIPR TETRA, average; read-out: Human UII Ca+ Mobilization Average IC50.

Assay [3] deals with T3, UT receptors in HSMM (Human Skeletal Muscle Myoblasts) (Homo sapiens, UniProt Q9UKP6).
T3 sequence (Q9UKP6 1-389): T2 sequence (Q9UKP6 1-389)
The assay can be described thus: Human Radioligand Binding Assay ((^125I)-U-II binding to intact HSMM).

[4] abbreviates: read-out: Human UII Average Binding Ki, intact HSMM, 0.150 nM (^125I)-U-II, 3 h, 25° C.

SMILES strings stand for the structures. Read-outs that look alike come from different tables or passages of the source. A value given as a limit tells only on which side of the number the result lay.

`CCN1CCN(c2cccc3c2CN([C@H](CCCSc2cccc[n+]2[O-])c2ccc(OC)c(OC)c2)C3=O)CC1` [Cpd 31, {(4R)-4-(3,4-dimethoxy-phenyl)-4-[4-(4-ethyl-piperazin-1-yl)-1-oxo-1,3-dihydro-isoindol-2-yl]-butylsulfanyl}-pyridine 1-oxide]: the IC50 (as a rule, the concentration at which inhibition is half-maximal) was found to be 11 nM in assay [1] and 602 nM in assay [2]. Moreover, the Ki (in general, the dissociation constant of the complex between target and ligand, obtained from inhibition or displacement) in assay [3] was determined as 135 nM.

Turning to `CCN1CCN(c2cccc3c2CN(C(c2cccc(NS(=O)(=O)c4cccs4)c2)c2ccc(OC)c(OC)c2)C3=O)CC1` (stereo not drawn) [Cpd 16, thiophene-2-sulfonic acid (3-{(3,4-dimethoxy-phenyl)-[4-(4-ethyl-piperazin-1-yl)-1-oxo-1,3-dihydro-isoindol-2-yl]-methyl}-phenyl)-amide], the IC50 stood at 31 nM in assay [1] and 1270 nM in assay [2]. In assay [3], this compound showed a Ki of 66 nM.

As for `COc1ccc([C@@H](CCCN(C)S(=O)(=O)c2cccs2)N2Cc3c(cccc3N3CCN(C(C)C)CC3)C2=O)cc1OC` [Cpd 8, thiophene-2-sulfonic acid {(4R)-4-(3,4-dimethoxy-phenyl)-4-[4-(4-isopropyl-piperazin-1-yl)-1-oxo-1,3-dihydro-isoindol-2-yl]-butyl}-methyl-amide], the values for the half-maximal inhibitory concentration (IC50) in assay [1] and in assay [2] were 2 nM and 177 nM, respectively. In assay [3] (setting [4]), the Ki turned out to be 11 nM.

As to `CCN1CCN(c2cccc3c2CN([C@H](CCCNC(=O)C(C)(C)C)c2ccc(OC)c(OC)c2)C3=O)CC1` [Cpd 83, N-{(4R)-4-(3,4-dimethoxy-phenyl)-4-[4-(4-ethyl-piperazin-1-yl)-1-oxo-1,3-dihydro-isoindol-2-yl]-butyl}-2,2-dimethyl-propionamide], the half-maximal inhibitory concentration (IC50) in assay [1] amounted to 45 nM; in assay [2] it was 200 nM. In assay [3], the Ki amounted to 17 nM.

As to `CCN1CCN(c2cccc3c2CN([C@H](CCCN(Cc2ccccc2)Cc2ccccc2)c2ccc(OC)c(OC)c2)C3=O)CC1` [Cpd 73, 2-[(1R)-4-dibenzylamino-1-(3,4-dimethoxy-phenyl)-butyl]-4-(4-ethyl-piperazin-1-yl)-2,3-dihydro-isoindol-1-one], the IC50 in assay [1] was determined as 26 nM; in assay [2], 178 nM. In assay [3], this compound gave an inhibition constant (Ki) of 53 nM.

As for `CCN1CCN(c2cccc3c2CN([C@H](CCCNC(N)=O)c2ccc(OC)c(OC)c2)C3=O)CC1` [Cpd 64, {(4R)-4-(3,4-dimethoxy-phenyl)-4-[4-(4-ethyl-piperazin-1-yl)-1-oxo-1,3-dihydro-isoindol-2-yl]-butyl}-urea], the values for the IC50 in assay [1] and in assay [2] were 143 nM and 3660 nM, respectively. The same compound registered a Ki in assay [3] above 300 nM.

As for `CCN1CCN(c2cccc3c2CN([C@H](CCCn2cnnn2)c2ccc(OC)c(OC)c2)C3=O)CC1` [Cpd 14, 2-[(1R)-1-(3,4-dimethoxy-phenyl)-4-tetrazol-1-yl-butyl]-4-(4-ethyl-piperazin-1-yl)-2,3-dihydro-isoindol-1-one], the concentration for half-maximal inhibition (IC50) was 31 nM in assay [1] and 1390 nM in assay [2]. This compound yielded an inhibition constant (Ki) in assay [3] of 129 nM.

As to `CCN1CCN(c2cccc3c2CN([C@H](CCCN(C)Cc2ccco2)c2ccc(OC)c(OC)c2)C3=O)CC1` [Cpd 94, 2-[(1R)-1-(3,4-dimethoxy-phenyl)-4-(furan-2-ylmethyl-methyl-amino)-butyl]-4-(4-ethyl-piperazin-1-yl)-2,3-dihydro-isoindol-1-one], the half-inhibitory concentration (IC50) in assay [1] was 4 nM; in assay [2], 74 nM. This compound also had a Ki in assay [3] of 43 nM.

As to `CCN1CCN(c2cccc3c2CN([C@H](CCCNCc2cccs2)c2ccc(OC)c(OC)c2)C3=O)CC1` [Cpd 72, 2-{(1R)-1-(3,4-dimethoxy-phenyl)-4-[(thiophen-2-ylmethyl)-amino]-butyl}-4-(4-ethyl-piperazin-1-yl)-2,3-dihydro-isoindol-1-one], the IC50 in assay [1] was determined as 6 nM; in assay [2], 59 nM. The Ki in assay [3] (setting [4]) amounted to 18 nM.

As for `CCN1CCN(c2cccc3c2CN([C@H](CCCn2cnc4ccccc42)c2ccc(OC)c(OC)c2)C3=O)CC1` [Cpd 29, 2-[(1R)-4-benzoimidazol-1-yl-1-(3,4-dimethoxy-phenyl)-butyl]-4-(4-ethyl-piperazin-1-yl)-2,3-dihydro-isoindol-1-one], the concentration for half-maximal inhibition (IC50) stood at 14 nM in assay [1] and 380 nM in assay [2]. Also, affinity in assay [3] was put at a Ki of 56 nM.

With `CCN1CCN(c2cccc3c2CN([C@H](CCCNS(N)(=O)=O)c2ccc(OC)c(OC)c2)C3=O)CC1` [Cpd 58, aminosulfonic acid {(4R)-4-(3,4-dimethoxy-phenyl)-4-[4-(4-ethyl-piperazin-1-yl)-1-oxo-1,3-dihydro-isoindol-2-yl]-butyl}-amide], the IC50 in assay [1] stood at 81 nM; in assay [2], 449 nM. The inhibitory constant (Ki) in assay [3] came to 109 nM.

On to `CCN1CCN(c2cccc3c2CN([C@H](CCCNc2nc(C)cc(C)n2)c2ccc(OC)c(OC)c2)C3=O)CC1` [Cpd 12, 2-[(1R)-1-(3,4-dimethoxy-phenyl)-4-(4,6-dimethyl-pyrimidin-2-ylamino)-butyl]-4-(4-ethyl-piperazin-1-yl)-2,3-dihydro-isoindol-1-one], for which the IC50 in assay [1] came out at 12 nM; in assay [2], 844 nM. Moreover, the inhibition constant Ki in assay [3] is 54 nM.

Regarding `CCN1CCN(c2cccc3c2CN([C@H](CCCNC(=O)c2cncn2C)c2ccc(OC)c(OC)c2)C3=O)CC1` [Cpd 59, 3-methyl-3H-imidazole-4-carboxylic acid {(4R)-4-(3,4-dimethoxy-phenyl)-4-[4-(4-ethyl-piperazin-1-yl)-1-oxo-1,3-dihydro-isoindol-2-yl]-butyl}-amide], the values for the IC50 in assay [1] and in assay [2] were 82 nM and 1260 nM, respectively. In assay [3], this compound came in with a Ki above 300 nM.

In the case of `CCc1ccnc(NCCC[C@H](c2ccc(OC)c(OC)c2)N2Cc3c(cccc3N3CCN(CC)CC3)C2=O)n1` [Cpd 20, 2-[(1R)-1-(3,4-dimethoxy-phenyl)-4-(4-ethyl-pyrimidin-2-ylamino)-butyl]-4-(4-ethyl-piperazin-1-yl)-2,3-dihydro-isoindol-1-one], the IC50 in assay [1] came out at 34 nM; in assay [2] it was 491 nM. In assay [3], this compound registered a Ki of 48 nM.

As for `CCN1CCN(c2cccc3c2CN([C@H](CCCNC(=O)c2cn(C)cn2)c2ccc(OC)c(OC)c2)C3=O)CC1` [Cpd 57, 1-methyl-1H-imidazole-4-carboxylic acid {(4R)-4-(3,4-dimethoxy-phenyl)-4-[4-(4-ethyl-piperazin-1-yl)-1-oxo-1,3-dihydro-isoindol-2-yl]-butyl}-amide], the figures for the half-inhibitory concentration (IC50) in assay [1] and in assay [2] were 245 nM and 913 nM, respectively. Moreover, the Ki in assay [3] was 49 nM.

Turning to `CCN1CCN(c2cccc3c2CN([C@H](CCCNC(=O)c2c(C)n[nH]c2C)c2ccc(OC)c(OC)c2)C3=O)CC1` [Cpd 60, 3,5-dimethyl-1H-pyrazole-4-carboxylic acid {(4R)-4-(3,4-dimethoxy-phenyl)-4-[4-(4-ethyl-piperazin-1-yl)-1-oxo-1,3-dihydro-isoindol-2-yl]-butyl}-amide], the IC50 in assay [1] was found to be 16 nM; in assay [2] it was 130 nM. Further, the Ki in assay [3] (setting [4]) was found to be 11 nM.

As to `COc1ccc([C@@H](CCCN(C)S(=O)(=O)c2cccs2)N2Cc3c(cccc3N3CCN(C4CCC4)CC3)C2=O)cc1OC` [Cpd 9, thiophene-2-sulfonic acid [(4R)-4-[4-(4-cyclobutyl-piperazin-1-yl)-1-oxo-1,3-dihydro-isoindol-2-yl]-4-(3,4-dimethoxy-phenyl)-butyl]-methyl-amide], the half-inhibitory concentration (IC50) in assay [1] is 4 nM; in assay [2], 511 nM. For the same compound, the Ki in assay [3] (setting [4]) was 44 nM.

In the case of `CCN1CCN(c2cccc3c2CN([C@H](CCCNc2nccc(C)n2)c2ccc(OC)c(OC)c2)C3=O)CC1` [Cpd 23, 2-[(1R)-1-(3,4-dimethoxy-phenyl)-4-(4-methyl-pyrimidin-2-ylamino)-butyl]-4-(4-ethyl-piperazin-1-yl)-2,3-dihydro-isoindol-1-one], the 50% inhibitory concentration (IC50) came out at 19 nM in assay [1] and 316 nM in assay [2]. Besides, the affinity in assay [3] corresponds to a Ki of 13 nM.

In the case of `CCN1CCN(c2cccc3c2CN([C@H](CCCSc2nc(C)cc(C)n2)c2ccc(OC)c(OC)c2)C3=O)CC1` [Cpd 27, 2-[(1R)-1-(3,4-dimethoxy-phenyl)-4-(4,6-dimethyl-pyrimidin-2-ylsulfanyl)-butyl]-4-(4-ethyl-piperazin-1-yl)-2,3-dihydro-isoindol-1-one], the IC50 in assay [1] amounted to 3 nM; in assay [2] it was 106 nM. This compound also registered an inhibitory constant (Ki) in assay [3] of 19 nM.
